Experimental data published in patent US8846627B2, “Method for treatment of malaria” (The Second Military Medical University, priority 2009, dated 2014).
Read-outs that look alike come from different tables or passages of the source.

Legend:
[1] = system: chloroquine sensitive (D6) strain of P. falciparum; experiment: In vitro anti-malarial activity assay (plasmodial LDH activity), D6 clone; format: cell-based; conditions: Plasmodium falciparum, read-out: P. falciparum (D6 Clone) IC50
Method: (§1) In vitro anti-malarial activity of the representative compounds was determined against chloroquine sensitive (D6) and chloroquine-resistant (W2) strains of P. falciparum.
(§2) The anti-malarial activity was determined by measuring plasmodial LDH activity as described earlier (Jain, M.; Khan, S. I.; Tekwani, B. L.; Jacob, M. R.; Singh, S.; Singh, P. P.; Jain, R. Synthesis, anti-malarial, antileishmanial, and antimicrobial activities of some 8-quinolinamine analogues. Bioorg. Med. Chem. 2005, 13, 4458-4466). A suspension of red blood cells infected with D6 or W2 strains of P. falciparum (200 with 2% parasitemia and 2% hematocrit in RPMI 1640 medium supplemented with 10% human serum and 60 µg/mL Amikacin) was added to the wells of a 96-well plate containing 10 μL of serially diluted test samples. The plate was flushed with a gas mixture of 90% N2, 5% O2, and 5% CO2 and incubated at 37° C. for 72 h in a modular incubation chamber (Billups-Rothenberg, Calif.). Parasitic LDH activity was determined by using Malstat™ reagent (Flow Inc., Portland, Oreg.) according to the procedure of Makler and Hinrichs (M. T. Makler and D. J. Hinrichs, Measurement of the lactate dehydrogenase activity of Plasmodium falciparum as an assessment of parasitemia. J. Am. J. Trop. Med. Hyg. 1993, 48(2):205-210). Briefly, 20 μl, of the incubation mixture was mixed with 100 μL of the Malstat™ reagent and incubated at room temperature for 30 min Twenty microliters of a 1:1 mixture of NBT/PES (Sigma, St. Louis, Mo.) was then added and the plate was further incubated in the dark for 1 h. The reaction was then stopped by the addition of 100 μL of a 5% acetic acid solution. The plate was read at 650 nm. Artemisinin and chloroquine were included in each assay as the drug controls. IC50 values were computed from the dose-response curves. To determine the selectivity index of anti-malarial activity of compounds, their cytotoxicity in vitro to mammalian cells was also determined. The assay was performed in 96-well tissue culture-treated plates as described earlier (J. Mustafa, S. I. Khan, G. Ma, L. A. Walker and I. A. Khan, Synthesis and Anticancer Activities of Fatty Acid Analogs of Podophyllotoxin. Lipids. 2004, 39(2):167-172). Vero cells (monkey kidney fibroblasts) were seeded to the wells of 96-well plate at a density of 25,000 cells/well and incubated for 24 h. Samples at different concentrations were added and plates were again incubated for 48 h. The number of viable cells was determined by Neutral Red assay. IC50 values were obtained from dose-response curves. Doxorubicin was used as a positive control.

[2] = system: chloroquine-resistant (W2) strain of P. falciparum; experiment: In vitro anti-malarial activity assay (plasmodial LDH activity), W2 clone; format: cell-based; conditions: Plasmodium falciparum, read-out: P. falciparum (W2 Clone) IC50
Method: as §1, §2

[3] = system: Plasmodium berghei (chloroquine sensitive strain); experiment: In vivo anti-malarial activity, 4-day suppressive test in infected mice; conditions: Swiss albino mice; for Day 4 % Suppression / Day 5 % Suppression / Day 6 % Suppression: intragastric
Method: Tests were performed in a 4-day suppressive standard test using the methods of David, Thurston and Peters (David, A. F., Philip, J. R., Simon, L. C., Reto B., and Solomon N. Antimalarial drug discovery: Efficacy models for compound screening. Nature Reviews. 2004; 3: 509-520). The plasmodium species, that is most widely employed in rodent malaria parasite-Plasmodium berghei (chloroquine sensitive strain), was used to infect Swiss albino mice for a fourday suppressive test. The P. berghei was subsequently maintained in the laboratory by serial blood passage from mouse to mouse. For the study, a donor mouse with a rising parasitemia of 20% was sacrificed and its blood was collected in a slightly heparinized syringe from the auxiliary vessels. The blood was diluted with Trisodium Citrate (TC) medium so that each 0.2 ml contained approximately 107 infected red cells. Each animal received inoculums of about […], which is expected to produce a steadily rising infection in mice.
Male Swiss albino mice were used. The mice were allowed to acclimatize to the laboratory environment under a controlled temperature of 20° C. and at optimum humidity for at least three days before being subjected to the experiments. All of the mice were divided into groups of six, and infected with malaria parasites.
The infection of the recipient mice was initiated by needle passage of the above mentioned parasite preparation, from the donor to healthy test animals via an intraperitoneal route. Therefore, P. berghei infected red blood cells were intraperitoneally injected into the mice from the blood diluted with TC medium so that each 0.2 ml had approximately 106-107 infected red cells (parasite per kg of body weight). Each mouse was infected with single inoculums of 0.2 ml blood.
The 4-day procedures were started on Mondays while blood smears for parasitemia were collected on Fridays. The infected mice were weighed, randomly divided into treatment, vehicle and standard drug groups. […] The compounds were administered through intra gastric route using the stomach tube to ensure the safe ingestion of the compounds and the vehicle.
Thin smears of blood films were obtained from the peripheral blood on the tail from each mouse on day four after infection. The smears were placed on microscopic slides, fixed with methanol and stained with Gemsa at pH 7.2, for parasitemia. […] The number of parasitized erythrocytes in each of the 10-50 such fields were counted three times and the average was calculated to give the Parasitemia of each individual animal. Percentage of suppression was calculated by using the following formula. % Suppression=(Parasitemia in negative control−Parasitemia in study group)/Parasitemia in negative control

[4] = molecular target: T1, Falcipain-2 protease (FP-2) (Plasmodium falciparum, UniProt Q8I6U4); experiment: Falcipain-2 protease inhibition assay (fluorescence reaction rate); format: biochemical; conditions: for inhibition at 10 µM: 10 μM compound, pH 5.5; for IC50: pH 5.5, sigmoidal fit, read-out: IC50 against falcipain-2
T1 construct: The falcipain-2 fragment was amplified by the polymerase chain reaction (PCR); His6 (N-terminal MRGS-His6 supplied by the pQE-30 vector; own knowledge of the vector, consistent with the Ni2+-NTA purification) (N); made in house; host or cells: E. coli M15
T1 sequence (Q8I6U4 244-484): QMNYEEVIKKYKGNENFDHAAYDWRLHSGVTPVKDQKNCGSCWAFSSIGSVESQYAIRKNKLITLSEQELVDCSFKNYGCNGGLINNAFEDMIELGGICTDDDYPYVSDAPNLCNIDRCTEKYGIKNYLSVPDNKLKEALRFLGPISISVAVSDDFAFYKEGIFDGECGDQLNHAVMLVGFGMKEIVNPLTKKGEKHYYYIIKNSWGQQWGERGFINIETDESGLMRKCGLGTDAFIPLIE
Method: (1) Expression and Purification of Falcipain-2 and Refolding of FP-2 Inclusion Bodies Protein
(2) The Determination of the Invention Compounds' Inhibitory Activity Against FP-2
FP-2 protein and test compounds dissolved in DMSO (prepared from EXAMPLES 1-4) were added to 197 μL, buffer, containing 100 mM NaOAc, 10 mM DTT, pH 5.5 (final concentration 10 μg/mL). The test compound were Stenopalustroside A, Stenopalustroside D, Tiliroside, kaempferol 3-O-β-(6″-caffeoylglucoside) and kaempferol 3-(2,4-di-E-p-coumaroyl-rhamnoside), respectively, which final concentration were 10 μM and 0 μM (as negative control). These compounds were incubated for […] and employed MD SpectraMax M5 Microplate Reader to continuous detect the RFU for 15 min, at excitation 355 nm and emission 460 nm Calculate the reaction rate Km, and obtain percentage inhibitory rate of the test compound at 10 μM by the following equation,
The equation is: (Kmof control group−Kmof experimental group)/Kmof control group×100%
Select […] compounds with over 50% inhibitory rate to detect IC50, and utilize the compound solutions prepared from EXAMPLE 1 to EXAMPLE 4, Stenopalustroside A, tiliroside kaempferol 3-O-β-(6″-caffeoylglucoside), and the experimental methods and system followed as EXAMPLE 6. According to FP-2 activity reaction rate Km with compounds at different concentrations, we can calculate the inhibitory rate of compounds against FP-2 at different concentration. The IC50 value was fitted with utilizing the Sigmoidal Equation by Origin software.

[5] = D6, 72 h incubation, LDH readout
[6] = W2, 72 h incubation, LDH readout

SMILES	IC50 [1, 5]	IC50 [2, 6]	inhibition at 10 µM [4]	IC50 [4]	Day 4 % Suppression ([3]; 10 mg/kg daily for 4 days)	Day 5 % Suppression ([3]; 10 mg/kg daily for 4 days)	Day 6 % Suppression ([3]; 10 mg/kg daily for 4 days)	Day 4 % Suppression ([3]; 200 mg/kg daily for 4 days)	Day 5 % Suppression ([3]; 200 mg/kg daily for 4 days)	Day 6 % Suppression ([3]; 200 mg/kg daily for 4 days)	Day 4 % Suppression ([3]; 50 mg/kg daily for 4 days)	Day 5 % Suppression ([3]; 50 mg/kg daily for 4 days)	Day 6 % Suppression ([3]; 50 mg/kg daily for 4 days)	Day 4 % Suppression ([3]; 100 mg/kg daily for 4 days)	Day 5 % Suppression ([3]; 100 mg/kg daily for 4 days)	Day 6 % Suppression ([3]; 100 mg/kg daily for 4 days)	Day 5 % Suppression ([3]; 400 mg/kg daily for 4 days)	also measured
C[C@@H]1CC[C@H]2[C@@H](C)C(=O)O[C@@H]3O[C@@]4(C)CC[C@@H]1[C@]32OO4 [Artemisinine, reference compound]	< 26.4 µM	< 26.4 µM																
CCN(CC)CCCC(C)Nc1ccnc2cc(Cl)ccc12 (stereo not shown) [Chloroquine, reference compound]					100%	100%	100%											IC50 ([1]; D6, 72 h): < 26.4 µM; IC50 ([2]; W2, 72 h): 160 µM
O=C(/C=C\c1ccc(O)cc1)OCC1O[C@@H](Oc2c(-c3ccc(O)cc3)oc3cc(O)cc(O)c3c2=O)C(O)[C@H](OC(=O)/C=C\c2ccc(O)cc2)[C@@H]1O (stereo partly shown) [Stenopalustroside A]	32.8 µM	98.6 µM	53%	1.45 µM				34.7%	33.3%	18.9%								
O=C(/C=C/c1ccc(O)c(O)c1)OCC1O[C@@H](Oc2c(-c3ccc(O)cc3)oc3cc(O)cc(O)c3c2=O)C(O)C(O)[C@@H]1O (stereo partly drawn) [kaempferol 3-O-β-(6″-caffeoylglucoside)]	55.8 µM	91.3 µM	53%	13.5 µM	20.6%	27.2%	37.8%	4.3%	9.0%	5.4%	52.1%	54.5%	45.9%	13.0%	15.1%	10.8%	6.0%	

More lines, main results first:

IC50 [1, 5]	IC50 [2, 6]	inhibition at 10 µM [4]	IC50 [4]	SMILES	Day 4 % Suppression ([3]; 10 mg/kg daily for 4 days)	Day 5 % Suppression ([3]; 10 mg/kg daily for 4 days)	Day 6 % Suppression ([3]; 10 mg/kg daily for 4 days)	Day 4 % Suppression ([3]; 200 mg/kg daily for 4 days)	Day 5 % Suppression ([3]; 200 mg/kg daily for 4 days)	Day 6 % Suppression ([3]; 200 mg/kg daily for 4 days)	Day 4 % Suppression ([3]; 50 mg/kg daily for 4 days)	Day 5 % Suppression ([3]; 50 mg/kg daily for 4 days)	Day 6 % Suppression ([3]; 50 mg/kg daily for 4 days)	Day 4 % Suppression ([3]; 100 mg/kg daily for 4 days)	Day 5 % Suppression ([3]; 100 mg/kg daily for 4 days)	Day 6 % Suppression ([3]; 100 mg/kg daily for 4 days)	Day 5 % Suppression ([3]; 400 mg/kg daily for 4 days)	also measured
68.4 µM	165 µM	39.4%		O=C(/C=C\c1ccc(O)cc1)OCC1O[C@@H](Oc2c(-c3ccc(O)cc3)oc3cc(O)cc(O)c3c2=O)C(O)[C@H](OC(=O)/C=C/c2ccc(O)cc2)[C@@H]1O (stereo partly shown) [Stenopalustroside D]	30.4%	51.5%	32.4%	43.4%	42.4%	37.8%	60.8%	63.6%	58.3%	56.5%	60.6%	45.9%	24.2%	Day 4 % Suppression ([3]; 400 mg/kg daily for 4 days): 8.6%; Day 6 % Suppression ([3]; 400 mg/kg daily for 4 days): 13.5%; maximum suppression ratio ([3]; maximum over doses and days): 60%
45.1 µM	147 µM	49.4%		CC1O[C@@H](Oc2c(-c3ccc(O)cc3)oc3cc(O)cc(O)c3c2=O)C(OC(=O)/C=C/c2ccc(O)cc2)C(O)[C@H]1OC(=O)/C=C/c1ccc(O)cc1 (stereo partly shown) [kaempferol 3-(2,4-di-E-p-coumaroyl-rhamnoside)]					9.0%	5.4%	34.7%	24.2%	29.7%	13.0%	21.2%	24.3%		
